A word on the IC50: it is the concentration that inhibits the measured activity by half. A high value points to weaker potency in that assay.

The structures appear in SMILES notation.

In the test the target is TRPV1 (Homo sapiens, UniProt Q8NER1). The test is described as follows: cell-based. The method, then:
Combine 42 μL of dye mixture with 11 mL of FLIPR buffer/96-well plate.
Laser is adjusted upwards for an average signal≧10,000/well and less than 10% variability.

TRPV1, sequence (Q8NER1 whole entry, species assumed): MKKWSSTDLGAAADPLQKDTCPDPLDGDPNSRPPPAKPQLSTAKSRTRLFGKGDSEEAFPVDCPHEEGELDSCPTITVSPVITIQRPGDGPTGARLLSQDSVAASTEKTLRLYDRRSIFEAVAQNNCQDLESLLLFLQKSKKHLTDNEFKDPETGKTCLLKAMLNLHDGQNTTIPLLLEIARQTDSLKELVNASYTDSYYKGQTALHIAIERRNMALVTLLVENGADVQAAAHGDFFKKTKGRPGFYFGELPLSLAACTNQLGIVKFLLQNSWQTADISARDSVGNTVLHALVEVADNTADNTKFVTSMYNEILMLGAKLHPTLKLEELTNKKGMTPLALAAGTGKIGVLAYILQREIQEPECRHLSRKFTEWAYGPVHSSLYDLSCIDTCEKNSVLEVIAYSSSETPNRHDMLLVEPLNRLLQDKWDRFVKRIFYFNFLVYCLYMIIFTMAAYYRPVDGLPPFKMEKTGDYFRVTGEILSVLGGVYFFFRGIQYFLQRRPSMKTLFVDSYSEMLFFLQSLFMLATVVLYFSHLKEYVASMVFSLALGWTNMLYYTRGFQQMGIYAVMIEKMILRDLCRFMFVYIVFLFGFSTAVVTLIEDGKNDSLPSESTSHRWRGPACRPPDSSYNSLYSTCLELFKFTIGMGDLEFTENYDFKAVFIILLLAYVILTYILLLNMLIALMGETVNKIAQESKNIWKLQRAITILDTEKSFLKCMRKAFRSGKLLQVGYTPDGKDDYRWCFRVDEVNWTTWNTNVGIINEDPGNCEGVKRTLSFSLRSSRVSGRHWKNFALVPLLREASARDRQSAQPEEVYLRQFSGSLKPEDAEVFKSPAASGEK

In turn, `Oc1cc2c(cc1O)CN(C(=S)NCCc1ccc(Cl)cc1)CCC2` [capsazepine] registered an IC50 of about 500 nM.
